# From US11492335B2, “Aryl or heteroaryl triazolone derivatives or salts thereof, or pharmaceutical compositions comprising the same” (YUHAN CORPORATION, priority 2018, dated 2022)
# Structures can show the parent of a compound that is named as a salt.
# Tests used:
# Type in all cases: biochemical
# recombinant human VAP-1 = biological target: T1, recombinant human VAP-1 (Homo sapiens, UniProt Q16853); assay: Activity on recombinant human VAP-1, Amplex Red HRP-coupled hydrogen peroxide assay, benzylamine substrate; conditions: recombinant human VAP-1, benzylamine substrate; read-out: Inhibitory Activity (IC50, nM) human VAP-1
# T1 construct: purchased R&D systems
# T1 sequence (Q16853 1-763): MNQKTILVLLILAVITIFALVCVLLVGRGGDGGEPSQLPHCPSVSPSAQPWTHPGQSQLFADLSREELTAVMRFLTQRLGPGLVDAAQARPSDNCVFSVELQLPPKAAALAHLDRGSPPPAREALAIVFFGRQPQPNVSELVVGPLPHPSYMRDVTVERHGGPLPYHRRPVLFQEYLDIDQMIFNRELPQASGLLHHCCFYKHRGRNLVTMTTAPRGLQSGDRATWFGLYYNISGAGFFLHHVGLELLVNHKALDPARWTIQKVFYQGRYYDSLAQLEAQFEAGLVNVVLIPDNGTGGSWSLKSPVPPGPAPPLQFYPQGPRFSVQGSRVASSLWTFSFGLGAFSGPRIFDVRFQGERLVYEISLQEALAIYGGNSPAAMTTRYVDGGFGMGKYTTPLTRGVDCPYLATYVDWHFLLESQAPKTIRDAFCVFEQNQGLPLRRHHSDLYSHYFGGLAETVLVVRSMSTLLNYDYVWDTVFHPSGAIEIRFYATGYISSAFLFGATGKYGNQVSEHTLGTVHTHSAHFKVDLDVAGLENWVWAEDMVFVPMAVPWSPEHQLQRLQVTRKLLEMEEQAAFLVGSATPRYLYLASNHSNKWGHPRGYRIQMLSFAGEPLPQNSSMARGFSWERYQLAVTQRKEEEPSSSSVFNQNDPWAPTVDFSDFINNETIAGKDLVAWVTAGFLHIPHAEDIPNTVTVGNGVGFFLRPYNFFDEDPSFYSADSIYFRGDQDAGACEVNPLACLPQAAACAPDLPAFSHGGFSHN
# Summary of the method: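 Compounds were preincubated with purified enzyme in 50 mM sodium phosphate pH 7.4 at 37 °C for 30 min, then 200 uM Amplex Red, 1 mM benzylamine and 1 U/mL HRP were added. Resorufin fluorescence (ex 544/em 590 nm) was followed over 1-2 h; IC50 came from 4-parameter fits of signal-rate inhibition.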
# [1] = biological target: T2, recombinant human DAO (diamine oxidase) (Homo sapiens, UniProt P19801); assay: Activity on recombinant human DAO, Amplex Red method, 1 mM putrescine substrate; conditions: recombinant human DAO, 1 mM putrescine substrate; read-out: Inhibitory Activity (IC50, nM) DAO
# T2 construct: purchased R&D systems
# T2 sequence (P19801 20-751): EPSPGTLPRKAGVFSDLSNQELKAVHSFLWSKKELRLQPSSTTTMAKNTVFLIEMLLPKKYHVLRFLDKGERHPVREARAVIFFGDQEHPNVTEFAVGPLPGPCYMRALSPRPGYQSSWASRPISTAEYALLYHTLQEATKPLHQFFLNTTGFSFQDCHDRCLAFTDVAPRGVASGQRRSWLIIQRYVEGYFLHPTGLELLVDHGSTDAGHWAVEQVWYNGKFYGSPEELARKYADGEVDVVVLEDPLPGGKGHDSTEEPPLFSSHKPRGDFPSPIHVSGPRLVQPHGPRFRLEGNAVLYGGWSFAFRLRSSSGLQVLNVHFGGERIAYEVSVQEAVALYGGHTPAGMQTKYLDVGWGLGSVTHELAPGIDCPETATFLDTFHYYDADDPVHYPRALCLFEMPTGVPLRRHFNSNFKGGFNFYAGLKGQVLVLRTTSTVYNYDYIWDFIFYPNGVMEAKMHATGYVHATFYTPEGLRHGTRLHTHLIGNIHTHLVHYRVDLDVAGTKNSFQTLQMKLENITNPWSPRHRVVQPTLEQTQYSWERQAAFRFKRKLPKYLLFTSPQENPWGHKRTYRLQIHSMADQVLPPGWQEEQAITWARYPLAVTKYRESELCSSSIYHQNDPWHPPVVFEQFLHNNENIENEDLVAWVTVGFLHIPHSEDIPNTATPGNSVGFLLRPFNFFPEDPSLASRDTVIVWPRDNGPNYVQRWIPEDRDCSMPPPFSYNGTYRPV
# Summary of the method: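 Inhibition of recombinant human DAO (diamine oxidase, R&D systems) was assessed with the Amplex Red Hydrogen Peroxide Assay Kit. Hydrogen peroxide produced from 1 mM putrescine was detected through an HRP-coupled reaction that converts Amplex Red into fluorescent resorufin, read at 544 nm excitation and 590 nm emission. IC50 values came from four-parameter logistic fits in GraphPad Prism.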
# [2] = biological target: T3, recombinant human MAO-A (monoamine oxidase-A) (Homo sapiens, UniProt P21397); assay: Activity on recombinant human MAO-A, Amplex Red method, 0.5 mM tyramine substrate; conditions: 0.5 mM tyramine substrate, read-out: Inhibitory Activity (IC50, nM) MAO-A
# T3 construct: purchased Sigma-Aldrich
# T3 sequence (P21397 1-527): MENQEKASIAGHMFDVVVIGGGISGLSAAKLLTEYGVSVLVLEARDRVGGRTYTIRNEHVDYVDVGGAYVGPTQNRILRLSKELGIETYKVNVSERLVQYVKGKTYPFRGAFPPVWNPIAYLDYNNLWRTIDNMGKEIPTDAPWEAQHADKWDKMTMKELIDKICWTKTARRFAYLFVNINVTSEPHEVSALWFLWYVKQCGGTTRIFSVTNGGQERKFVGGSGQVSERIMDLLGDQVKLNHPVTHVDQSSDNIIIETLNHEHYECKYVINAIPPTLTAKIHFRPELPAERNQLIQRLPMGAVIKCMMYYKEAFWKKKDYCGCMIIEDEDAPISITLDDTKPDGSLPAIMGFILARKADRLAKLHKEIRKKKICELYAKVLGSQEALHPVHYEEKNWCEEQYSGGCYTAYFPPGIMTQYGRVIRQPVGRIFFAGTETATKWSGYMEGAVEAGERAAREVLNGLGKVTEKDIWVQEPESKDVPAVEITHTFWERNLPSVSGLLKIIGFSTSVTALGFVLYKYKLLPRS
# Summary of the method: (§1)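 8-point, 1:3 dose-response, four-parameter logistic IC50 from reduction in fluorescence rate versus DMSO control. HRP/Amplex Red detection of H2O2 (ex 544, em 590 nm) after 30 min, 37 °C compound–enzyme preincubation in pH 7.4 phosphate buffer. MAO-A substrate: 0.5 mM tyramine; MAO-B: 1 mM benzylamine.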
# [3] = biological target: T4, recombinant human MAO-B (monoamine oxidase-B) (Homo sapiens, UniProt P27338); assay: Activity on recombinant human MAO-B, Amplex Red method, 1 mM benzylamine substrate; conditions: 1 mM benzylamine substrate, read-out: Inhibitory Activity (IC50, nM) MAO-B
# T4 construct: purchased Sigma-Aldrich
# T4 sequence (P27338 1-520): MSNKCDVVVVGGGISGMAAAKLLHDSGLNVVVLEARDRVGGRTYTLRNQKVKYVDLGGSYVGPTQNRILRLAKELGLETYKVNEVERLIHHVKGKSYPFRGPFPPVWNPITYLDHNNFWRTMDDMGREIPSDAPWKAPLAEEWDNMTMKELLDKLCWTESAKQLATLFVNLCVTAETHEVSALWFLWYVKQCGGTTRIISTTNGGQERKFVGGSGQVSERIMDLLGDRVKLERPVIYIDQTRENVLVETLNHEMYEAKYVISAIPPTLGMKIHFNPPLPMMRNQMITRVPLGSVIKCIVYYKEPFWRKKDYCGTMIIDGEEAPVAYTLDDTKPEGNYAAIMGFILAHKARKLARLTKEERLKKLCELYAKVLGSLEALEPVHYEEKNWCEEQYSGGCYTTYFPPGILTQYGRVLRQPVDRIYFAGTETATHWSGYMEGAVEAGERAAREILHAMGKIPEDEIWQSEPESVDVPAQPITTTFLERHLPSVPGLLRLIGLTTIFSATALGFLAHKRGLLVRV
# Summary of the method: as §1
Compound,IC50 (recombinant human VAP-1) [nM],IC50 [1] [nM],IC50 [2] [nM],IC50 [3] [nM]
"NC/C(=C\F)Cn1ncn(-c2cnc(-c3ccc4cn[nH]c4c3)cn2)c1=O [Example 223, 2-[(2E)-2-(aminomethyl)-3-fluoroprop-2-en-1-yl]-4-[5-(1H-indazol-6-yl)pyrazin-2-yl]-2,4-dihydro-3H-1,2,4-triazol-3-one]",2.2,< 100,21700,10.5
"NC/C(=C\F)Cn1ncn(-c2cnc(-c3ccc4sc(N)nc4c3)cn2)c1=O [Example 224, 4-[5-(2-amino-1,3-benzothiazol-5-yl)pyrazin-2-yl]-2-[(2E)-2-(aminomethyl)-3-fluoroprop-2-en-1-yl]-2,4-dihydro-3H-1,2,4-triazol-3-one]",1.3,< 100,> 100000,49
"CC(=O)Nc1nc2cc(-c3cnc(-n4cnn(C/C(=C/F)CN)c4=O)cn3)ccc2s1 [Example 225, N-[5-(5-{1-[(2E)-2-(aminomethyl)-3-fluoroprop-2-en-1-yl]-5-oxo-1,5-dihydro-4H-1,2,4-triazol-4-yl}pyrazin-2-yl)-1,3-benzothiazol-2-yl]acetamide]",1,< 100,> 100000,53
"CS(=O)(=O)c1ccc(-c2cnc(-n3cnn(C/C(=C\F)CN)c3=O)s2)cc1 [Example 226, 2-[(2Z)-2-(aminomethyl)-3-fluoroprop-2-en-1-yl]-4-{5-[4-(methylsulfonyl)phenyl]-1,3-thiazol-2-yl}-2,4-dihydro-3H-1,2,4-triazol-3-one hydrochloride]",1.4,< 100,> 100000,11.4
"NC/C(=C\F)Cn1ncn(-c2ncc(-c3ccc(-c4nnc[nH]4)cc3)s2)c1=O [Example 227, 2-[(2E)-2-(aminomethyl)-3-fluoroprop-2-en-1-yl]-4-{5-[4-(4H-1,2,4-triazol-3-yl)phenyl]-1,3-thiazol-2-yl}-2,4-dihydro-3H-1,2,4-triazol-3-one]",0.61,0.24,> 100000,164
"NC/C(=C\F)Cn1ncn(-c2ncc(-c3cccc(-c4nnc[nH]4)c3)s2)c1=O [Example 228, 2-[(2E)-2-(aminomethyl)-3-fluoroprop-2-en-1-yl]-4-{5-[3-(4H-1,2,4-triazol-3-yl)phenyl]-1,3-thiazol-2-yl}-2,4-dihydro-3H-1,2,4-triazol-3-one]",0.38,< 100,> 100000,9.2
NC/C(=C\F)Cn1ncn(-c2ncc(-c3ccc(-c4ncon4)cc3)s2)c1=O [Example 229],0.98,< 100,130,12
"NC/C(=C/F)Cn1ncn(-c2ncc(-c3ccc4c(c3)OCO4)s2)c1=O [Example 232, 2-[(2Z)-2-(aminomethyl)-3-fluoroprop-2-en-1-yl]-4-[5-(1,3-benzodioxol-5-yl)-1,3-thiazol-2-yl]-2,4-dihydro-3H-1,2,4-triazol-3-one hydrochloride]",0.78,< 100,24,< 100
"NC/C(=C/F)Cn1ncn(-c2ncc(-c3ccc4nonc4c3)s2)c1=O [Example 234, 2-[(2Z)-2-(aminomethyl)-3-fluoroprop-2-en-1-yl]-4-[5-(2,1,3-benzooxadiazol-5-yl)-1,3-thiazol-2-yl]-2,4-dihydro-3H-1,2,4-triazol-3-one hydrochloride]",0.98,< 100,< 100,10.1
"CC(=O)Nc1nc(Cc2ccc(-n3cnn(C/C(=C/F)CN)c3=O)cc2)cs1 [Example 235, hydrochloride]",0.43,< 100,> 100000,2580
"NC/C(=C\F)Cn1ncn(-c2cc(/C=C/c3ccccc3)ccn2)c1=O [Example 236, 2-[(2E)-2-(aminomethyl)-3-fluoroprop-2-en-1-yl]-4-{4-[(E)-2-phenylethenyl]pyridin-2-yl}-2,4-dihydro-3H-1,2,4-triazol-3-one hydrochloride]",0.8,6.4,> 10000,16
"NC/C(=C\F)Cn1ncn(-c2cccc(/C=C/c3ccsc3)n2)c1=O [Example 237, 2-[(2E)-2-(aminomethyl)-3-fluoroprop-2-en-1-yl]-4-{6-[(E)-2-(thiophen-3-yl)ethenyl]pyridin-2-yl}-2,4-dihydro-3H-1,2,4-triazol-3-one]",2.4,170,20000,< 100
"NC/C(=C\F)Cn1ncn(-c2cccc(/C=C/c3ccc(C(F)(F)F)cc3)n2)c1=O [Example 238, 2-[(2E)-2-(aminomethyl)-3-fluoroprop-2-en-1-yl]-4-(6-{(E)-2-[4-(trifluoromethyl)phenyl]ethenyl}pyridin-2-yl)-2,4-dihydro-3H-1,2,4-triazol-3-one Hydrochloride]",0.9,15,34000,1600
